Results: patent US20260183275A1, “SUBSTITUTED QUINOLONE COMPOUNDS USEFUL AS INHIBITORS OF TLR9” (Bristol-Myers Squibb Company, priority 2022, published 2026)

Key:
Assay type in all cases: cell-based
human TLR8 = biological target: T1, human TLR8 (Homo sapiens, UniProt Q9NR97); test: TLR8 inhibition reporter assay (HEK-Blue cells, SEAP reporter); conditions: HEK-Blue cells overexpressing human TLR8; stimulated with R848 15.9 μM; SEAP read after 22 hour; dose range 0.05 nM-50 μM
T1 construct: host or cells: HEK-Blue cells
T1 sequence (Q9NR97 27-1041): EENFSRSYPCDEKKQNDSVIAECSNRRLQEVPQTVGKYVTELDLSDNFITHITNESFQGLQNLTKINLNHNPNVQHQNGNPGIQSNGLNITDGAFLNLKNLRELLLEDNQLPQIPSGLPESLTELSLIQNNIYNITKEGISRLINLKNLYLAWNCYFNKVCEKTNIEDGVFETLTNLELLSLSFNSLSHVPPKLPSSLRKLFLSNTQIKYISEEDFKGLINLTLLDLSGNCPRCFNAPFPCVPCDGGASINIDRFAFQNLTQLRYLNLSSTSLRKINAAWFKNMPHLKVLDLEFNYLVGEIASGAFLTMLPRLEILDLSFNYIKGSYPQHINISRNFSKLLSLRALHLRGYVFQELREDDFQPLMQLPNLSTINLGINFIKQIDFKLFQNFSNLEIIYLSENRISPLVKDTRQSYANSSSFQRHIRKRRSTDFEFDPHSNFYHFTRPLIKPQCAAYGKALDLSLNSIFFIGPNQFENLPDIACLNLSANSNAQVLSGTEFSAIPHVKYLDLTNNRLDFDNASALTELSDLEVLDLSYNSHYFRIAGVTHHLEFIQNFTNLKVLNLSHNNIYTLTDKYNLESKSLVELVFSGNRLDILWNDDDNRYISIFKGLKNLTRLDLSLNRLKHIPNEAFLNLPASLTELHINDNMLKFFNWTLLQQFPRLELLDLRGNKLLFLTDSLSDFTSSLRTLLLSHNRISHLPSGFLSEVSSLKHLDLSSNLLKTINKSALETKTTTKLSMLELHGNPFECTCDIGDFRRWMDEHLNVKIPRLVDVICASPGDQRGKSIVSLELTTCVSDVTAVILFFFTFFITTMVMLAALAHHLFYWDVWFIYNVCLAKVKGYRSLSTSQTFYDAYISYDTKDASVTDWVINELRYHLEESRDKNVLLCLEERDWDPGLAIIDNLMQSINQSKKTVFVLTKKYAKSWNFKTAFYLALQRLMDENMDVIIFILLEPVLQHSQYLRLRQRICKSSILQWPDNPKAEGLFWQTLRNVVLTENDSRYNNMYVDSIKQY
Method in brief: (§1)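 HEK-Blue cells with NF-κB/AP-1-driven SEAP pre-treated 30 min with compounds (0.05 nM-50 μM), then stimulated with gardiquimod 7.5 μM (TLR7), R848 15.9 μM (TLR8) or ODN2006 5 nM (TLR9). SEAP read after 22 h at 37° C; % inhibition relative to agonist+DMSO and reference-inhibitor wells.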

human TLR9 = biological target: T2, human TLR9 (Homo sapiens, UniProt Q9NR96); test: TLR9 inhibition reporter assay (HEK-Blue cells, SEAP reporter); conditions: HEK-Blue cells overexpressing human TLR9; stimulated with ODN2006 5 nM; SEAP read after 22 hour; dose range 0.05 nM-50 μM
T2 construct: host or cells: HEK-Blue cells
T2 sequence (Q9NR96 26-1032): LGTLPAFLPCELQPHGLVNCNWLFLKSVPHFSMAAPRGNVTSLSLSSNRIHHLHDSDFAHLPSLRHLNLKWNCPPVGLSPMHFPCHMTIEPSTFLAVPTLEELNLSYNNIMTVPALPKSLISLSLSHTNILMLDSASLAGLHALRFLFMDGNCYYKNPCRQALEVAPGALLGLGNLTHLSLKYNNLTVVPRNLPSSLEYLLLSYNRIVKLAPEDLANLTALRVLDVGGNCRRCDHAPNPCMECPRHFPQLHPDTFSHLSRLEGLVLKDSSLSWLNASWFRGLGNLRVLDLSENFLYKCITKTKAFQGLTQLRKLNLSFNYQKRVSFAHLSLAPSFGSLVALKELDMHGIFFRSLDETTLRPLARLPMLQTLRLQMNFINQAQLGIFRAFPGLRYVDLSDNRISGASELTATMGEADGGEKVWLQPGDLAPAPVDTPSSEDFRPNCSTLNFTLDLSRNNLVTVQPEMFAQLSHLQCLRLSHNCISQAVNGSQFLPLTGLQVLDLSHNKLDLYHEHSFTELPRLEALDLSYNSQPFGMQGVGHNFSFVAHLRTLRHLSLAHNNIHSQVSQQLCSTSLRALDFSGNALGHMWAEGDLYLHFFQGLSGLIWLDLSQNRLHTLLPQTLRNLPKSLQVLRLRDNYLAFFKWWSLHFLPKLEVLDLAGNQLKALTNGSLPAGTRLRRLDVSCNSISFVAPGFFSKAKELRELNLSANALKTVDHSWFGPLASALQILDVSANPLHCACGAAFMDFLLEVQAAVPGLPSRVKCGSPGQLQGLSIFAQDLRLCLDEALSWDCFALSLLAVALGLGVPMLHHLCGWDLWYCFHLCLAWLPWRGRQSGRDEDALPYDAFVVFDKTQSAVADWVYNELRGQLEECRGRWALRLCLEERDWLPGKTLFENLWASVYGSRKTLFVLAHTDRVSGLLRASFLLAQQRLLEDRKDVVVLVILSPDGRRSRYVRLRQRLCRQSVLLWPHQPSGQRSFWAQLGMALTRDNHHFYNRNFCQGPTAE
Method in brief: as §1

human TLR7 = biological target: T3, human TLR7 (Homo sapiens, UniProt Q9NYK1); test: TLR7 inhibition reporter assay (HEK-Blue cells, SEAP reporter); conditions: HEK-Blue cells overexpressing human TLR7; stimulated with gardiquimod 7.5 μM; SEAP read after 22 hour; dose range 0.05 nM-50 μM
T3 construct: host or cells: HEK-Blue cells
T3 sequence (Q9NYK1 27-1049): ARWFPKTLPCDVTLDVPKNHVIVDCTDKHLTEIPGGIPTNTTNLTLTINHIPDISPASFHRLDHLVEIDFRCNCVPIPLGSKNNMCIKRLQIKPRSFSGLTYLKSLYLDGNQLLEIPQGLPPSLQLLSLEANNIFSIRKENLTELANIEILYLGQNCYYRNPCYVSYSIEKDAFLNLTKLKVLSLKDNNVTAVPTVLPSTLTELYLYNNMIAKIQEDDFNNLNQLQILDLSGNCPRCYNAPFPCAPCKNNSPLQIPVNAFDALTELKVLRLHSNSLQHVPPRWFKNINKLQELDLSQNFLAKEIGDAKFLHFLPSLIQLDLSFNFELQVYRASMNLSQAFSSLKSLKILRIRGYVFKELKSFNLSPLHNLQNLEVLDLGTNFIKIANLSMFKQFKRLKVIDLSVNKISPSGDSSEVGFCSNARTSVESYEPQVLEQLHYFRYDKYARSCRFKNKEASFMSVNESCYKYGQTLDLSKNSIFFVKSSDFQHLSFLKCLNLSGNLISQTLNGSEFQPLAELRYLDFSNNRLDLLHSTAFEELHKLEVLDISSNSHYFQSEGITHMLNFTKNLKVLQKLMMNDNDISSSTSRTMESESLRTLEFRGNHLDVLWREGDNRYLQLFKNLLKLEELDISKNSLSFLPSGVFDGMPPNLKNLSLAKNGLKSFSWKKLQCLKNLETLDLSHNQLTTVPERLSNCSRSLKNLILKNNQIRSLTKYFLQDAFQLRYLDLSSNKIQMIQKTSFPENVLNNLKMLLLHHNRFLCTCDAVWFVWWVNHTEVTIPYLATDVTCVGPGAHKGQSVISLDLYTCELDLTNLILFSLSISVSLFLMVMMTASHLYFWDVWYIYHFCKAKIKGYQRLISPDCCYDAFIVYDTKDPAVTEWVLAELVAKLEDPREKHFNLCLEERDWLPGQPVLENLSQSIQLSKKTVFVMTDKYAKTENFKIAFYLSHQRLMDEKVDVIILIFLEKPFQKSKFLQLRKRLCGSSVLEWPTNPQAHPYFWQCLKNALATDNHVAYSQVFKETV
Method in brief: as §1

Compound	IC50 (human TLR8) [nM]	IC50 (human TLR9) [nM]	IC50 (human TLR7) [nM]
CC(C)N1CCC(c2ccc(-c3ccc4[nH]c(=O)c(-c5ccc(NS(C)(=O)=O)cc5)cc4c3)cc2)CC1 [Example 83, N-[4-(2-oxo-6-{4-[1-(propan-2-yl)piperidin-4-yl]phenyl}-1,2-dihydroquinolin-3-yl)phenyl]methanesulfonamide]	≥ 50000	354	369
CCc1c(-c2ccc(S(C)(=O)=O)cc2)c(=O)[nH]c2ccc(-c3ccc(N4CCN(C(C)C)CC4)cc3)cc12 [Example 84, 4-ethyl-3-(4-methanesulfonylphenyl)-6-{4-[4-(propan-2-yl)piperazin-1-yl]phenyl}-1,2-dihydroquinolin-2-one]	672	389	2320
CC(C)Cn1c(=O)c(-c2ccc(S(C)(=O)=O)cc2)cc2cc(-c3ccc(C4CCN(C(C)C)CC4)cc3)ccc21 [Example 85, 3-(4-methanesulfonylphenyl)-1-(2-methylpropyl)-6-{4-[1-(propan-2-yl)piperidin-4-yl]phenyl}-1,2-dihydroquinolin-2-one]	26300	400	14600
CCc1c(-c2ccc(S(C)(=O)=O)cc2)c(=O)n(C)c2ccc(-c3ccc(C4CCN(C(C)C)CC4)cc3)cc12 [Example 86, 4-ethyl-3-(4-methanesulfonylphenyl)-1-methyl-6-{4-[1-(propan-2-yl)piperidin-4-yl]phenyl}-1,2-dihydroquinolin-2-one]	1550	406	10400
Cn1c(=O)c(-c2ccc(S(C)(=O)=O)cc2)cc2cc(-c3ccc(C4CCN(C5COC5)CC4)cc3)ccc21 [Example 87, 3-(4-methanesulfonylphenyl)-1-methyl-6-{4-[1-(oxetan-3-yl)piperidin-4-yl]phenyl}-1,2-dihydroquinolin-2-one]	30000	416	≥ 50000
CC(C)N1CCC(c2ccc(-c3ccc4c(c3)cc(-c3ccc(S(C)(=O)=O)cc3)c(=O)n4CC(C)(C)O)cc2)CC1 [Example 89, 1-(2-hydroxy-2-methylpropyl)-3-(4-methanesulfonylphenyl)-6-{4-[1-(propan-2-yl)piperidin-4-yl]phenyl}-1,2-dihydroquinolin-2-one]	10900	465	4960
CC(C)N1CCN(c2ccc(Nc3ccc4[nH]c(=O)c(-c5ccc(S(C)(=O)=O)cc5)cc4c3)cc2)CC1 [Example 90, 3-(4-methanesulfonylphenyl)-6-({4-[4-(propan-2-yl)piperazin-1-yl]phenyl}amino)-1,2-dihydroquinolin-2-one]	≥ 50000	493	3090
O=c1[nH]c2ccc(-c3ccc(C4CCN(C5COC5)CC4)cc3)cc2cc1-c1ccc(OC(F)F)cc1 [Example 91, 3-[4-(difluoromethoxy)phenyl]-6-{4-[1-(oxetan-3-yl)piperidin-4-yl]phenyl}-1,2-dihydroquinolin-2-one]	≥ 50000	512	≥ 50000
NS(=O)(=O)c1ccc(-c2cc3cc(-c4ccc(C5CCN(C6COC6)CC5)cc4)ccc3[nH]c2=O)cc1 [Example 92, 4-(6-{4-[1-(oxetan-3-yl)piperidin-4-yl]phenyl}-2-oxo-1,2-dihydroquinolin-3-yl)benzene-1-sulfonamide]	11400	560	≥ 50000
CC(C)N1CCC(c2ccc(-c3ccc4[nH]c(=O)c(-c5ccc6nccnc6c5)cc4c3)cc2)CC1 [Example 93, 6-{4-[1-(propan-2-yl)piperidin-4-yl]phenyl}-3-(quinoxalin-6yl)-1,2-dihydroquinolin-2-one]	49800	651	1870
O=c1[nH]c2ccc(-c3ccc(C4CCN(C5COC5)CC4)cc3)cc2cc1-c1ccc2nccnc2c1 [Example 94, 6-{4-[1-(oxetan-3-yl)piperidin-4-yl]phenyl}-3-(quinoxalin-6-yl)-1,2-dihydroquinolin-2-one]	≥ 50000	689	≥ 50000
CCc1c(-c2ccc(OC)c(OC)c2)c(=O)[nH]c2ccc(-c3ccc(N4CCN(C(C)C)CC4)cc3)cc12 [Example 95, 3-(3,4-dimethoxyphenyl)-4-ethyl-6-{4-[4-(propan-2-yl)piperazin-1-yl]phenyl}-1,2-dihydroquinolin-2-one]	731	691	5890
CC(C)N1CCC(c2ccc(-c3ccc4c(c3)cc(-c3ccc(N(C)C)cc3)c(=O)n4C)cc2)CC1 [Example 96, 3-[4-(dimethylamino)phenyl]-1-methyl-6-{4-[1-(propan-2-yl)piperidin-4-yl]phenyl}-1,2-dihydroquinolin-2-one]	≥ 50000	1430	17300
CN1CCC(c2ccc3[nH]c(=O)c(-c4ccc(S(C)(=O)=O)cc4)cc3c2)CC1 [Example 97, 3-(4-methanesulfonylphenyl)-6-(1-methylpiperidin-4-yl)-1,2-dihydroquinolin-2-one]	20100	960	2510
